Experimental data as given in patent US20250381179A1, “CHROMAN-BASED COMPOUNDS FOR TREATING CANCER” (priority 2024, published 2025).

Test: Phase 1 study: safety and tolerability (TEAEs, NCI CTCAE v5.0)
Description: The study employed an open-label, 3+3 design, with the option of adding backfill patients to each cohort cleared and deemed safe. […] Tumor responses were assessed every 2 cycles using RECIST v1.1 criteria. […] The study also involves an ongoing dose escalation study where participants receive 100 mg, 200 mg, 300 mg, 400 mg, and 600 mg once daily (QD) dose levels.
Safety was assessed through the analysis of the reported incidence of treatment-emergent AEs. Treatment-emergent AEs are those with an onset on or after the initiation of therapy and will be graded according to NCI CTCAE Version 5.0. Other safety endpoints, including laboratory results, vital signs, and ECG findings, were summarized for all patients in the Safety set.

## O=C1CC[C@H](N2Cc3cc(N4CCN(CC5CCN(c6ccc([C@@H]7c8ccc(O)cc8OC[C@@H]7c7ccccc7)cc6F)CC5)CC4)ccc3C2=O)C(=O)N1 [compound (1-g), (S)-3-(5-(4-((1-(2-fluoro-4-((3S,4R)-7-hydroxy-3-phenylchroman-4-yl)phenyl)piperidin-4-yl)methyl)piperazin-1-yl)-1-oxoisoindolin-2-yl)piperidine-2,6-dione]
400 mg QD (N = 6)
  TEAE: Nausea: 1 (16.7) n (%)
  TEAE: Neutrophil Count Decreased: 2 (33.3) n (%)
  TEAE: Oedema Peripheral: 1 (16.7) n (%)
  TEAE: Ophthalmic Migraine: 0 n (%)
  TEAE: Oral Pain: 0 n (%)
  TEAE: Pain In Extremity: 0 n (%)
  TEAE: Pharyngitis: 0 n (%)
  TEAE: Platelet Count Decreased: 1 (16.7) n (%)
  TEAE: Pleural Effusion: 0 n (%)
  TEAE: Pneumonia: 0 n (%)
  TEAE: Productive Cough: 0 n (%)
  TEAE: Rash Maculo-Papular: 0 n (%)
  TEAE: Rhinitis Allergic: 0 n (%)
  TEAE: Rib Fracture: 0 n (%)
  TEAE: Seizure: 0 n (%)
  TEAE: Sepsis: 0 n (%)
  TEAE: Tremor: 0 n (%)
  TEAE: Upper Respiratory Tract Infection: 0 n (%)
  TEAE: Urinary Tract Infection: 0 n (%)
  TEAE: Vaginal Haemorrhage: 0 n (%)
  TEAE: Vomiting: 0 n (%)
  related TEAE: Alopecia: 1 (16.7) n (%)
  related TEAE: Arthralgia: 0 n (%)
  related TEAE: Constipation: 1 (16.7) n (%)
  related TEAE: Diarrhea: 1 (16.7) n (%)
  related TEAE: Dysgeusia: 1 (16.7) n (%)
  related TEAE: Eructation: 1 (16.7) n (%)
  related TEAE: Fatigue: 0 n (%)
  related TEAE: Flatulence: 1 (16.7) n (%)
  related TEAE: Hot Flush: 0 n (%)
  related TEAE: Hyperhidrosis: 0 n (%)
  related TEAE: Nail Disorder: 1 (16.7) n (%)
  related TEAE: Nausea: 1 (16.7) n (%)
  related TEAE: Neutrophil Count Decreased: 2 (33.3) n (%)
  related TEAE: Platelet Count Decreased: 1 (16.7) n (%)
  related TEAE: Tremor: 0 n (%)
  related TEAE: Vomiting: 0 n (%)
600 mg QD (N = 4)
  Patients with Any Compound (1-g) related TEAE: 2 (50.0) n (%)
  Patients with Any TEAE: 2 (50.0) n (%)
  TEAE: Abdominal Distension: 0 n (%)
  TEAE: Abdominal Pain: 0 n (%)
  TEAE: Acute Kidney Injury: 0 n (%)
  TEAE: Adrenal Insufficiency: 0 n (%)
  TEAE: Alopecia: 0 n (%)
  TEAE: Anaemia: 0 n (%)
  TEAE: Anxiety: 0 n (%)
  TEAE: Arthralgia: 0 n (%)
  TEAE: Axillary Vein Thrombosis: 0 n (%)
  TEAE: Back Pain: 1 (25.0) n (%)
  TEAE: Basal Cell Carcinoma: 0 n (%)
  TEAE: Breast Pain: 0 n (%)
  TEAE: Confusional State: 0 n (%)
  TEAE: Constipation: 1 (25.0) n (%)
  TEAE: Cough: 0 n (%)
  TEAE: Covid-19 Pneumonia: 0 n (%)
  TEAE: Dehydration: 0 n (%)
  TEAE: Diarrhoea: 0 n (%)
  TEAE: Dizziness: 0 n (%)
  TEAE: Dysgeusia: 0 n (%)
  TEAE: Dyspepsia: 0 n (%)
  TEAE: Dyspnoea: 0 n (%)
  TEAE: Dysuria: 0 n (%)
  TEAE: Eructation: 0 n (%)
  TEAE: Fall: 0 n (%)
  TEAE: Fatigue: 0 n (%)
  TEAE: Flatulence: 0 n (%)
  TEAE: Fracture: 0 n (%)
  TEAE: Fungal Infection: 0 n (%)
  TEAE: Haematoma: 0 n (%)
  TEAE: Hot Flush: 1 (25.0) n (%)
  TEAE: Hyperglycaemia: 0 n (%)
  TEAE: Hyperhidrosis: 1 (25.0) n (%)
  TEAE: Hypokalaemia: 0 n (%)
  TEAE: Hypotension: 0 n (%)
